In ChEMBL document CHEMBL4382234, “Fluoroquinolone-isatin hybrids and their biological activities” (Eur J Med Chem, 2019):
≈ marks a conversion by molar mass, not a printed value.

Legend:
Format in all cases: functional
[1] = tested on: Mycolicibacterium smegmatis; experiment: Antimycobacterial activity against Mycobacterium smegmatis CMCC 93202 after 72 hrs by double dilution method; details: CMCC 93202, 72 h
[2] = tested on: Mycobacterium tuberculosis; experiment: Antimycobacterial activity against Mycobacterium tuberculosis H37Rv ATCC 27294 by rapid direct susceptibility test
[3] = tested on: Mycobacterium tuberculosis; experiment: Antimycobacterial activity against Mycobacterium tuberculosis H37Rv after 3 to 7 days by rapid direct susceptibility test
[4] = tested on: Mycobacterium tuberculosis; experiment: Antitubercular activity against Mycobacterium tuberculosis H37Rv by microplate alamar blue assay

| Structure (SMILES) | MIC [1] [µg/mL] | MIC [2] [µg/mL] | MIC [3] [µg/mL] | MIC [4] [µg/mL] |
| --- | --- | --- | --- | --- |
| COc1c(N2C[C@@H]3CCCN(CN4C(=O)/C(=N\NC(N)=S)c5cc(F)ccc54)[C@@H]3C2)c(F)cc2c(=O)c(C(=O)O)cn(C3CC3)c12 | 0.39 to 16 (≈ 0.598 to 24.6 µM) | 0.39 to 16 (≈ 0.598 to 24.6 µM) | – | – |
| COc1c(N2C[C@@H]3CCCN(CN4C(=O)/C(=N\NC(N)=O)c5ccccc54)[C@@H]3C2)c(F)cc2c(=O)c(C(=O)O)cn(C3CC3)c12 | 0.39 to 16 (≈ 0.631 to 25.9 µM) | 0.39 to 16 (≈ 0.631 to 25.9 µM) | – | – |
| Cc1ccc2c(c1)/C(=N\NC(N)=O)C(=O)N2CCCN1CCN(c2cc3c(cc2F)c(=O)c(C(=O)O)cn3C2CC2)CC1 | – | – | 0.1 to 64 (≈ 0.17 to 109 µM) | – |
| CCc1cc(C(N)=S)ccn1 [ETHIONAMIDE] | – | – | – | 2.5 (≈ 15 µM) |
| COc1cc(Cc2cnc(/N=C3\C(=O)N(CN4CCN(c5c(F)cc6c(=O)c(C(=O)O)cn(C7CC7)c6c5OC)CC4C)c4ccc(F)cc43)nc2N)cc(OC)c1OC (stereo not drawn) | – | – | – | 0.78 to 3.13 (≈ 0.946 to 3.79 µM) |
| COc1c(N2C[C@@H]3CCCN[C@@H]3C2)c(F)cc2c(=O)c(C(=O)O)cn(C3CC3)c12 [MOXIFLOXACIN] | 0.1 to 1 (≈ 0.249 to 2.49 µM) | 0.1 to 1 (≈ 0.249 to 2.49 µM) | 0.1 (≈ 0.249 µM) | – |
| COc1cc(Cc2cnc(/N=C3\C(=O)N(CN4CCN(c5cc6c(cc5F)c(=O)c(C(=O)O)cn6C5CC5)CC4)c4ccc(Cl)cc43)nc2N)cc(OC)c1OC | – | – | – | 0.78 to 3.13 (≈ 0.978 to 3.93 µM) |
| COc1c(N2C[C@@H]3CCCN(CCN4C(=O)/C(=N\NC(N)=S)c5ccccc54)[C@@H]3C2)c(F)cc2c(=O)c(C(=O)O)cn(C3CC3)c12 | 0.39 to 16 (≈ 0.602 to 24.7 µM) | 0.39 to 16 (≈ 0.602 to 24.7 µM) | – | – |
| COc1cc(Cc2cnc(/N=C3\C(=O)N(CN4CCN(c5cc6c(cc5F)c(=O)c(C(=O)O)cn6C5CC5)CC4)c4ccc(C)cc43)nc2N)cc(OC)c1OC | – | – | – | 0.78 to 3.13 (≈ 1 to 4.03 µM) |
| CCn1cc(C(=O)O)c(=O)c2cc(F)c(N3CCN(CN4C(=O)/C(=N\c5ncc(Cc6cc(OC)c(OC)c(OC)c6)c(N)n5)c5cc(F)ccc54)C(C)C3)c(F)c21 (stereo not drawn) | – | – | – | 0.78 to 3.13 (≈ 0.974 to 3.91 µM) |
| COc1c(N2CCNC(C)C2)c(F)cc2c(=O)c(C(=O)O)cn(C3CC3)c12 (stereo not drawn) [GATIFLOXACIN] | – | – | 0.5 (≈ 1.33 µM) | – |
| CO/N=C1\C(=O)N(CCN2CCC[C@H]3CN(c4c(F)cc5c(=O)c(C(=O)O)cn(C6CC6)c5c4OC)C[C@H]32)c2cc(F)ccc21 | 0.39 to 16 (≈ 0.627 to 25.7 µM) | 0.39 to 16 (≈ 0.627 to 25.7 µM) | – | – |
| COc1c(N2C[C@@H]3CCCN(CCN4C(=O)/C(=N\NC(N)=O)c5cc(F)ccc54)[C@@H]3C2)c(F)cc2c(=O)c(C(=O)O)cn(C3CC3)c12 | 0.39 to 16 (≈ 0.6 to 24.6 µM) | 0.39 to 16 (≈ 0.6 to 24.6 µM) | – | – |
| CC[C@@H](CO)NCCN[C@@H](CC)CO [ETHAMBUTOL] | – | – | – | 1.88 (≈ 9.2 µM) |
| COc1c(N2C[C@@H]3CCCN(CN4C(=O)/C(=N\O)c5ccccc54)[C@@H]3C2)c(F)cc2c(=O)c(C(=O)O)cn(C3CC3)c12 | 0.39 to 16 (≈ 0.678 to 27.8 µM) | 0.39 to 16 (≈ 0.678 to 27.8 µM) | – | – |
| Cc1ccc2c(c1)/C(=N\NC(N)=S)C(=O)N2CCCN1CCN(c2cc3c(cc2F)c(=O)c(C(=O)O)cn3C2CC2)CC1 | – | – | 0.1 to 64 (≈ 0.165 to 106 µM) | – |
| COc1c(N2C[C@@H]3CCCN(CCN4C(=O)C(=O)c5cc(F)ccc54)[C@@H]3C2)c(F)cc2c(=O)c(C(=O)O)cn(C3CC3)c12 | 0.39 to 16 (≈ 0.658 to 27 µM) | 0.39 to 16 (≈ 0.658 to 27 µM) | – | – |
| COc1cc(Cc2cnc(/N=C3\C(=O)N(CN4CCN(c5c(F)cc6c(=O)c(C(=O)O)cn(C7CC7)c6c5OC)CC4C)c4ccc(Cl)cc43)nc2N)cc(OC)c1OC (stereo not drawn) | – | – | – | 0.78 to 3.13 (≈ 0.927 to 3.72 µM) |
| COc1c(N2C[C@@H]3CCCN(CCN4C(=O)/C(=N\NC(N)=S)c5cc(F)ccc54)[C@@H]3C2)c(F)cc2c(=O)c(C(=O)O)cn(C3CC3)c12 | 0.39 to 16 (≈ 0.586 to 24 µM) | 0.39 to 16 (≈ 0.586 to 24 µM) | – | – |
| COc1c(N2C[C@@H]3CCCN(CN4C(=O)C(=O)c5ccccc54)[C@@H]3C2)c(F)cc2c(=O)c(C(=O)O)cn(C3CC3)c12 | 0.39 to 16 (≈ 0.696 to 28.5 µM) | 0.39 to 16 (≈ 0.696 to 28.5 µM) | – | – |
| COc1c(N2C[C@@H]3CCCN(CN4C(=O)C(=O)c5cc(F)ccc54)[C@@H]3C2)c(F)cc2c(=O)c(C(=O)O)cn(C3CC3)c12 | 0.39 to 16 (≈ 0.674 to 27.7 µM) | 0.39 to 16 (≈ 0.674 to 27.7 µM) | – | – |
| COc1cc(Cc2cnc(/N=C3\C(=O)N(CN4CCN(c5c(F)cc6c(=O)c(C(=O)O)cn(C7CC7)c6c5OC)CC4C)c4ccc(C)cc43)nc2N)cc(OC)c1OC (stereo not drawn) | – | – | – | 0.78 to 3.13 (≈ 0.95 to 3.81 µM) |
| CO/N=C1\C(=O)N(CN2CCC[C@H]3CN(c4c(F)cc5c(=O)c(C(=O)O)cn(C6CC6)c5c4OC)C[C@H]32)c2ccccc21 | 0.39 to 16 (≈ 0.661 to 27.1 µM) | 0.39 to 16 (≈ 0.661 to 27.1 µM) | – | – |
| COc1c(N2C[C@@H]3CCCN(CN4C(=O)/C(=N\NC(N)=S)c5ccccc54)[C@@H]3C2)c(F)cc2c(=O)c(C(=O)O)cn(C3CC3)c12 | 0.39 to 16 (≈ 0.615 to 25.2 µM) | 0.39 to 16 (≈ 0.615 to 25.2 µM) | – | – |
| CCO/N=C1\C(=O)N(CCN2CCC[C@H]3CN(c4c(F)cc5c(=O)c(C(=O)O)cn(C6CC6)c5c4OC)C[C@H]32)c2ccccc21 | 0.39 to 16 (≈ 0.631 to 25.9 µM) | 0.39 to 16 (≈ 0.631 to 25.9 µM) | – | – |
| COc1c(N2C[C@@H]3CCCN(Cc4cn(CCN5C(=O)/C(=N/O)c6ccccc65)nn4)[C@@H]3C2)c(F)cc2c(=O)c(C(=O)O)cn(C3CC3)c12 | – | – | 0.1 to 0.78 (≈ 0.149 to 1.16 µM) | – |
| CO/N=C1\C(=O)N(CN2CCC[C@H]3CN(c4c(F)cc5c(=O)c(C(=O)O)cn(C6CC6)c5c4OC)C[C@H]32)c2ccc(F)cc21 | 0.39 to 16 (≈ 0.642 to 26.3 µM) | 0.39 to 16 (≈ 0.642 to 26.3 µM) | – | – |
